# Results from article PMC9867526, “Drug Metabolism of Hepatocyte-like Organoids and Their Applicability in In Vitro Toxicity Testing” (Molecules, 2023).
# Assays:
# HL-ICOs = assay: Cytotoxicity (CellTiter-Glo ATP viability) in hepatocyte-like intrahepatic cholangiocyte organoids, 48 h exposure; format: cell-based, human
# Description: The cell suspension was cultured in MatrigelTM (Corning, New York, NY, USA) droplets in expansion medium (EM) until organoids were formed, as previously described. EM consisted of Advanced DMEM/F12 (Life Technologies) supplemented with 1% (v/v) penicillin-streptomycin (Life Technologies), 1% (v/v) GlutaMax (Life Technologies), 10 mM HEPES (4-(2-hydroxyethyl)-1-piperazineethanesulfonic acid, Life Technologies), 2% (v/v) B27 supplement without vitamin A (Invitrogen, Carlsbad, CA, USA), 1% (v/v) N2 supplement (Invitrogen), 10 mM nicotinamide (Sigma-Aldrich, St Louis, MO, USA), 1.25 mM N-acetylcysteine (Sigma-Aldrich), 10% (v/v) R-spondin-1 conditioned medium (the Rspo1-Fc-expressing cell line was a kind gift from Calvin J. Kuo), 10 μM forskolin (Sigma-Aldrich), 5 μM A83-01 (transforming growth factor beta inhibitor; Tocris Bioscience, Bristol, UK), 50 ng/mL EGF (Invitrogen), 25 ng/mL HGF (Peprotech, Rocky Hill, NJ, USA), 0.1 μg/mL FGF10 (Peprotech) and 10 nM recombinant human ([…])-gastrin I (Sigma-Aldrich). Medium was changed twice a week. Passaging occurred every 7-10 days at ratios ranging between 1:2 and 1:4. All cultures were kept in a humidified atmosphere of 95% air and 5% CO2 at 37 °C. Organoids were primed for differentiation with BMP7 (25 ng/mL, Peprotech) through spiking EM 3 days before shifting to hepatic differentiation medium (DM). DM consisted of EM without R-spondin-1, FGF10, and nicotinamide, supplemented with 100 ng/mL FGF19 (Peprotech), 500 nM A83-01 (Tocris Bioscience), 10 μM DAPT (Selleckchem, Munich, Germany), 25 ng/mL BMP-7 (Peprotech), and […] (Sigma-Aldrich). Organoids were kept on DM for up to 12 days. For exposure experiments, differentiation assay medium was prepared to reduce antioxidants in the medium. This assay medium consisted of DMEM GlutaMAX instead of DMEM-F12 medium complemented with the same components as differentiation medium excluding GlutaMAX, B27, and NAC. In 96-well format (cytotoxicity assay), 12,000 cells in 9 μL Matrigel per well were plated at the start of differentiation, and exposure was started at day 10 of differentiation for 48 h. In 24-well format (CYP activity assay), cells were densely plated in a fresh Matrigel droplet (50 μL) upon the start of differentiation, and cells were exposed to the CYP substrate cocktail on day 12 of differentiation. […] Cells plated in 96-well plates were exposed to a concentration range (six concentrations in 2x dilution) of five known hepatotoxic compounds for 48 h (single dose). Acetaminophen (CAS 103-90-2; 30 mM) and valproic acid (CAS 1069-66-5; 10 mM) were directly dissolved in assay medium (previously described for each hepatic cell model). […] For the latter, vehicle control (0.5% (v/v) DMSO) was used in the exposure experiments. All chemicals were obtained from Sigma-Aldrich, unless stated otherwise. […] The viability of exposed cells was determined by cellular ATP levels using the CellTiter-Glo Luminescent Cell Viability Assay (Promega, Madison, WI, USA). The CellTiter Glo reagent was prepared according to the manufacturer's instructions. Briefly, the culture plate was equilibrated at room temperature for 30 min. Medium was removed from the plate, after which phosphate-buffered saline (PBS) and the CellTiter Glo reagent were added to each well in equal volumes. The plate was mixed for 2 min on an orbital shaker and incubated for an additional 10 min at room temperature. Luminescence was measured on the TriStar2 (Berthold Technologies, Bad Wildbad, Germany), and samples were normalized to (vehicle) control.
# PHH = assay: Cytotoxicity (CellTiter-Glo ATP viability) in primary human hepatocytes, 48 h exposure; format: cell-based; conditions: Hepatocyte
# Description: LiverPool cryoplateable hepatocytes (pool of 10 donors, mixed gender; BioIVT, Hicksville, NY, USA) were cultured in a collagen I (Sigma-Aldrich, St Louis, MO, USA) sandwich in INVITROGRO CP medium (BioIVT) complemented with the TORPEDO Antibiotic mix (BioIVT). Seeding density was 49,000 cells/well in a 96-well plate (cytotoxicity assay) or 350,000 cells/well in a 24-well plate (CYP activity assay), according to the manufacturer’s instructions. Exposure of the hepatocytes was started 48 h after seeding. For exposure assays, INVITROGRO HI medium (BioIVT) was used, as recommended. Cells plated in 96-well plates were exposed to a concentration range (six concentrations in 2x dilution) of five known hepatotoxic compounds for 48 h (single dose). Acetaminophen (CAS 103-90-2; 30 mM) and valproic acid (CAS 1069-66-5; 10 mM) were directly dissolved in assay medium (previously described for each hepatic cell model). […] For the latter, vehicle control (0.5% (v/v) DMSO) was used in the exposure experiments. All chemicals were obtained from Sigma-Aldrich, unless stated otherwise. […] The viability of exposed cells was determined by cellular ATP levels using the CellTiter-Glo Luminescent Cell Viability Assay (Promega, Madison, WI, USA). The CellTiter Glo reagent was prepared according to the manufacturer’s instructions. Briefly, the culture plate was equilibrated at room temperature for 30 min. Medium was removed from the plate, after which phosphate-buffered saline (PBS) and the CellTiter Glo reagent were added to each well in equal volumes. The plate was mixed for 2 min on an orbital shaker and incubated for an additional 10 min at room temperature. Luminescence was measured on the TriStar2 (Berthold Technologies, Bad Wildbad, Germany), and samples were normalized to (vehicle) control.
# HepaRG = assay: Cytotoxicity (CellTiter-Glo ATP viability) in HepaRG cells, 48 h exposure; format: cell-based; conditions: Homo sapiens
# Description: Undifferentiated HepaRG cells were purchased from Biopredic International (Saint Grégoire, France). Cells were cultured (passage number between p18 and p28) in T75 flasks in culture medium consisting of William’s E medium (without phenol red; Thermo Fisher Scientific, Waltham, MA, USA) supplemented with 1% (v/v) penicillin-streptomycin (Thermo Fisher Scientific), 10% (v/v) fetal bovine serum (FBS; Thermo Fisher Scientific), 50 µM hydrocortisone 21-hemisuccinate (Sigma-Aldrich, St Louis, MO, USA), 2 mM GlutaMax (Thermo Fisher Scientific) and 5 µg/mL insulin (Sigma-Aldrich). For differentiation, cells were cultured for 7–10 days and upon confluence, the monolayer was switched to differentiation medium (culture medium supplemented with 1% (v/v) DMSO). After differentiation, cells were trypsinized using TrypLE (Thermo Fisher Scientific) and seeded at a density of 65,000 cells/well in a 96-well plate (cytotoxicity assay) or 130,000 cells/well in a 24-well plate (CYP activity assay). Cells were allowed to attach for 24 to 48 h. Before exposure, cells were washed with assay medium (culture medium without FBS), after which exposure was started. Cells plated in 96-well plates were exposed to a concentration range (six concentrations in 2x dilution) of five known hepatotoxic compounds for 48 h (single dose). Acetaminophen (CAS 103-90-2; 30 mM) and valproic acid (CAS 1069-66-5; 10 mM) were directly dissolved in assay medium (previously described for each hepatic cell model). […] For the latter, vehicle control (0.5% (v/v) DMSO) was used in the exposure experiments. All chemicals were obtained from Sigma-Aldrich, unless stated otherwise. […] The viability of exposed cells was determined by cellular ATP levels using the CellTiter-Glo Luminescent Cell Viability Assay (Promega, Madison, WI, USA). The CellTiter Glo reagent was prepared according to the manufacturer’s instructions. Briefly, the culture plate was equilibrated at room temperature for 30 min. Medium was removed from the plate, after which phosphate-buffered saline (PBS) and the CellTiter Glo reagent were added to each well in equal volumes. The plate was mixed for 2 min on an orbital shaker and incubated for an additional 10 min at room temperature. Luminescence was measured on the TriStar2 (Berthold Technologies, Bad Wildbad, Germany), and samples were normalized to (vehicle) control.
# [1] = HL-ICOs, range over the four ICO donors, 48 h
# [2] = Homo sapiens, 48 h, HL-ICOs, range over the four ICO donors
# [3] = Homo sapiens, HL-ICOs differentiation day 12, ICO donor in first HL-ICO column, 48 h single dose, cell viability (ATP)
# [4] = Homo sapiens, HL-ICOs differentiation day 12, ICO donor in fourth HL-ICO column, 48 h single dose, cell viability (ATP)
# [5] = Homo sapiens, HL-ICOs differentiation day 12, ICO donor in second HL-ICO column, 48 h single dose, cell viability (ATP)
# [6] = Homo sapiens, HL-ICOs differentiation day 12, ICO donor in third HL-ICO column, 48 h single dose, cell viability (ATP)
# [7] = PHH (pool of 10 donors, collagen I sandwich), 48 h single dose, cell viability (ATP)
# [8] = 48 h single dose, median of three independent experiments, minimum and maximum EC50 within brackets
# [9] = range of three independent experiments
Structure (SMILES),EC50 (HL-ICOs; [1]) [µM],EC50 (HL-ICOs; [2]) [µM],EC50 (HL-ICOs; [3]) [µM],EC50 (HL-ICOs; [4]) [µM],EC50 (HL-ICOs; [5]) [µM],EC50 (HL-ICOs; [6]) [µM],EC50 (PHH; PHH) [µM],EC50 (PHH; [7]) [µM],EC50 (HepaRG; [8]) [µM],EC50 (HepaRG; [9]) [µM],"EC50 (HL-ICOs; Homo sapiens, 48 h, HL-ICOs, the other three ICO donors, higher than highest tested concentration) [µM]","cytotoxicity (HL-ICOs; HL-ICOs, three ICO donors, up to 31.5 µM, 48 h)"
CC(=O)Nc1ccc(O)cc1 [Acetaminophen],24000 to 24900,24000 to 26800,24900,24000,24600,26800,4190,4190,4040,3460 to 6040,,
O=C(O)Cc1ccccc1Nc1c(Cl)cccc1Cl [Diclofenac],,,> 500,,> 500,> 500,,421,352,272 to 435,> 500,
C1CCC(C(CC2CCCCN2)C2CCCCC2)CC1 (stereo not shown) [Perhexiline],,,> 31.5,> 31.5,9.68,> 31.5,,8.07,26,10.5 to 26.4,,no cytotoxicity
Cc1c(C)c2c(c(C)c1O)CCC(C)(COc1ccc(CC3SC(=O)NC3=O)cc1)O2 (stereo not shown) [Troglitazone],23.1 to 90.8,23.1 to 90.8,42.8,24.4,90.8,23.1,,57.1,45.1,14.9 to 45.2,,
CCCC(CCC)C(=O)O [Valproic Acid],,> 10000,> 10000,> 10000,> 10000,> 10000,9880,9880,4580,4170 to 6070,,
